Reference: patent publication US20080311657A1, “Killing Human Lymphoma and Leukemia Cancer Cells and Tcr-Activated Normal Human Cells By Dopamine D1r Agonists” (priority 2005, published 2008)
Several values for one entry are separate records, joined by “and”; a condition that tells them apart may be missing. Equal values may be shown once.

Legend:
[1] = system: 5HT2 receptors; details: cited from earlier work
[2] = system: muscarinic receptors; details: cited from earlier work
[3] = system: α1 adrenoceptors; details: cited from earlier work
[4] = system: 5HT1 receptors; details: cited from earlier work
[5] = system: Human T-Cell Lymphoma (HuT-78); assay: Cell death by LDH release (CytoTox 96); assay type: cell-based
Method: (§1) Cell viability was tested afterwards.
(§2) Tables 3 and 4 show results of experiments designed primarily for studying the kinetics of the effect (herein fenoldopam hydrobromide was tested only at a concentration range of 10^−4 M-10^−6 M), and indicate that already after 1 minute of fenoldopam hydrobromide addition, there is an increased LDH. Yet, the extent of death increased gradually with time (10, 30 and 60 minutes), and after 1 hour the cancer cells released dramatic levels of LDH, indicating massive cell death.

[6] = system: Human Chronic Myeloid Leukemia (CML, K-562); assay: Cell death by LDH release (CytoTox 96); assay type: cell-based
Method: as §1, §2

[7] = system: Human Burkitt's B-Cell Lymphoma (Daudi); assay: Cell death by LDH release (CytoTox 96); assay type: cell-based; details: 1 hour
Method: as §1

[8] = system: α2-adrenoceptors; details: cited from earlier work
[9] = system: D2-like receptors; details: cited from earlier work
[10] = system: β adrenoceptors; details: cited from earlier work

Compound: Oc1ccc(C2CNCCc3c2cc(O)c(O)c3Cl)cc1 (stereo not shown) [Fenoldopam]
- Affinity, in words [1]: no significant affinity
- Affinity, in words [2]: no significant affinity
- Affinity, in words [3]: no significant affinity
- Affinity, in words [4]: no significant affinity
- Release of LDH (OD), Average OD ([5]; Fenoldopam 10^−4M 1 Min): 0.8135 OD
- Release of LDH (OD), OD Duplicates ([5]; Fenoldopam 10^−4M 1 Min): 0.786 OD and 0.841 OD
- Release of LDH (OD), Average OD ([5]; Fenoldopam 10^−4M 10 Min): 1.4355 OD
- Release of LDH (OD), Average OD ([5]; Fenoldopam 10^−4M 30 Min): 3.087 OD
- Release of LDH (OD), OD Duplicates ([5]; Fenoldopam 10^−4M 30 Min): 3.015 OD and 3.159 OD
- Release of LDH (OD), Average OD ([5]; Fenoldopam 10^−4M 60 Min): 2.8775 OD
- Release of LDH (OD), OD Duplicates ([5]; Fenoldopam 10^−4M 60 Min): 2.688 OD and 3.067 OD
- Release of LDH (OD), Average OD ([5]; Fenoldopam 10^−5M 60 Min): 2.9465 OD
- Release of LDH (OD), OD Duplicates ([5]; Fenoldopam 10^−5M 60 Min): 2.907 OD and 3.022 OD
- Release of LDH (OD), Average OD ([5]; Fenoldopam 10^−6M 60 Min): 0.7625 OD
- Release of LDH (OD), OD Duplicates ([5]; Fenoldopam 10^−6M 60 Min): 0.759 OD and 0.766 OD
- Release of LDH (OD), Average OD ([6]; Fenoldopam 10^−4M 1 Min): 1.081 OD
- Release of LDH (OD), OD Duplicates ([6]; Fenoldopam 10^−4M 1 Min): 1.081 OD
- Release of LDH (OD), Average OD ([6]; Fenoldopam 10^−4M 10 Min): 0.863 OD
- Release of LDH (OD), OD Duplicates ([6]; Fenoldopam 10^−4M 10 Min): 0.868 OD and 0.858 OD
- Release of LDH (OD), Average OD ([6]; Fenoldopam 10^−4M 30 Min): 2.7755 OD
- Release of LDH (OD), OD Duplicates ([6]; Fenoldopam 10^−4M 30 Min): 2.737 OD and 2.814 OD
- Release of LDH (OD), Average OD ([6]; Fenoldopam 10^−4M 60 Min): 2.27 OD
- Release of LDH (OD), OD Duplicates ([6]; Fenoldopam 10^−4M 60 Min): 2.733 OD and 1.807 OD
- Release of LDH (OD), Average OD ([6]; Fenoldopam 10^−5M 60 Min): 2.9645 OD
- Release of LDH (OD), OD Duplicates ([6]; Fenoldopam 10^−5M 60 Min): 2.907 OD and 3.022 OD
- Release of LDH (OD), Average OD ([6]; Fenoldopam 10^−6M 60 Min): 0.7625 OD
- Release of LDH (OD), OD Duplicates ([6]; Fenoldopam 10^−6M 60 Min): 0.759 OD and 0.766 OD
- LDH Release (OD), Average ([7]; Fenoldopam 10^−4M): 0.9595 OD
- LDH Release (OD), OD Duplicates ([7]; Fenoldopam 10^−4M): 0.961 OD and 0.958 OD
- LDH Release (OD), Average ([7]; Fenoldopam 10^−5M): 1.0025 OD
- LDH Release (OD), OD Duplicates ([7]; Fenoldopam 10^−5M): 0.99 OD and 1.015 OD
- LDH Release (OD), Average ([7]; Fenoldopam 10^−6M): 0.526 OD
- LDH Release (OD), OD Duplicates ([7]; Fenoldopam 10^−6M): 0.525 OD and 0.527 OD
- LDH Release (OD), Average ([7]; Fenoldopam 10^−7M): 0.5365 OD
- LDH Release (OD), OD Duplicates ([7]; Fenoldopam 10^−7M): 0.55 OD and 0.523 OD
- LDH Release (OD), Average ([7]; Fenoldopam 10^−8M): 1.339 OD
- LDH Release (OD), OD Duplicates ([7]; Fenoldopam 10^−8M): 1.316 OD and 1.362 OD
- LDH Release (OD), Average ([7]; Fenoldopam 10^−9M): 0.899 OD
- LDH Release (OD), OD Duplicates ([7]; Fenoldopam 10^−9M): 0.903 OD and 0.895 OD
- Concentration of maximal killing ([7]; LDH release, Table 2): 10^−8 M
- Affinity, in words [8]: moderate affinity
- Affinity, in words [9]: no significant affinity
- Affinity, in words [10]: no significant affinity
